# The supplement of paper PMC10307832
# Assays:
# Test in all cases: relative viability (nuclei count vs DMSO), 5 days (fraction); higher = more cells survive
# [1] = compound: C1CNCCC1C2=CC(=NN2)C3=CC=NC=C3 + CS(=O)(=O)CCNCc1ccc(-c2ccc3ncnc(Nc4ccc(OCc5cccc(F)c5)c(Cl)c4)c3c2)o1 [Lapatinib] (partner 2 µM)
# Procedure, shortened: (§1)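 Dosing by pin tool came one day after lung cancer cell lines were seeded in 1536-well plates, using either one drug or a fixed anchor-drug dose plus five library-drug doses (not always all listed) in √10 steps. After 5 days, nuclei were counted on 4× images. Relative viability is treated-well nuclei count divided by vehicle-well nuclei count, and values are medians of duplicate plates.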
# Tanzisertib + Pictilisib = compound: O[C@H]1CC[C@H](Nc2ncc3nc(Nc4c(F)cc(F)cc4F)n([C@H]4CCOC4)c3n2)CC1 [Tanzisertib] + CS(=O)(=O)N1CCN(Cc2cc3nc(-c4cccc5[nH]ncc45)nc(N4CCOCC4)c3s2)CC1 [Pictilisib] (partner 1 µM)
# Procedure, shortened: as §1
# [2] = compound: C1CNCCC1C2=CC(=NN2)C3=CC=NC=C3 + CS(=O)(=O)N1CCN(Cc2cc3nc(-c4cccc5[nH]ncc45)nc(N4CCOCC4)c3s2)CC1 [Pictilisib] (partner 1 µM)
# Procedure, shortened: as §1
# Tanzisertib + Decitabine = compound: O[C@H]1CC[C@H](Nc2ncc3nc(Nc4c(F)cc(F)cc4F)n([C@H]4CCOC4)c3n2)CC1 [Tanzisertib] + Nc1ncn([C@H]2C[C@H](O)[C@@H](CO)O2)c(=O)n1 [Decitabine] (partner 2 µM)
# Procedure, shortened: as §1
Cell Line,relative viability ([1]; first compound 0.08 µM),relative viability ([1]; first compound 0.8 µM),relative viability ([1]; first compound 2.53 µM),relative viability ([1]; first compound 8 µM),relative viability (Tanzisertib + Pictilisib; first compound 0.08 µM),relative viability (Tanzisertib + Pictilisib; first compound 0.253 µM),relative viability (Tanzisertib + Pictilisib; first compound 0.8 µM),relative viability (Tanzisertib + Pictilisib; first compound 2.53 µM),relative viability (Tanzisertib + Pictilisib; first compound 8 µM),relative viability ([2]; first compound 0.08 µM),relative viability ([2]; first compound 0.8 µM),relative viability ([2]; first compound 2.53 µM),relative viability ([2]; first compound 8 µM),relative viability (Tanzisertib + Decitabine; first compound 0.08 µM),relative viability (Tanzisertib + Decitabine; first compound 0.253 µM),relative viability (Tanzisertib + Decitabine; first compound 0.8 µM),relative viability (Tanzisertib + Decitabine; first compound 2.53 µM),relative viability (Tanzisertib + Decitabine; first compound 8 µM)
NCI-H460,0.68,1.4,1.11,1.03,0.495,0.368,0.362,0.317,0.0876,0.423,0.289,0.436,0.385,0.54,0.465,0.479,0.467,0.497
NCI-H520,0.763,0.897,0.92,0.835,0.372,0.322,0.29,0.287,0.297,0.277,0.324,0.293,0.351,0.565,0.483,0.533,0.491,0.459
NCI-H596,1.08,1.17,1.07,0.993,0.408,0.407,0.42,0.394,0.451,0.407,0.425,0.392,0.407,0.986,1.08,0.982,1,0.863
NCI-H647,1.06,1.26,1.15,1.01,0.456,0.537,0.474,0.436,0.141,0.388,,0.427,0.381,0.437,0.329,0.334,0.457,0.578
NCI-H650,0.966,0.773,1.11,0.951,0.843,0.825,0.858,0.957,0.963,0.897,0.992,0.939,0.904,0.33,0.321,0.305,0.337,0.284
NCI-H661,0.466,0.475,0.479,0.55,0.464,0.389,0.365,0.447,0.35,0.516,0.422,0.522,0.445,0.55,0.566,0.522,0.502,0.487
NCI-H727,0.717,0.847,1.01,0.981,0.356,0.463,0.363,0.333,0.307,0.373,0.407,0.505,0.575,0.941,0.875,0.702,0.89,0.755
NCI-H838,0.906,0.97,1.07,0.895,0.564,0.424,0.493,0.536,0.493,0.439,0.491,0.471,0.461,0.455,0.468,0.459,0.483,0.481
NCI-H1355,0.971,0.948,1,0.935,0.455,0.417,0.46,0.461,0.306,0.501,0.52,0.517,0.423,0.374,0.388,0.369,0.388,0.361
NCI-H1395,0.886,0.876,0.987,1.18,0.592,0.735,0.568,0.589,0.533,0.837,0.535,0.677,0.785,0.798,0.726,0.747,0.737,0.72
NCI-H1437,0.765,0.912,0.827,0.769,0.445,0.492,0.452,0.486,0.565,0.443,0.485,0.45,0.528,0.622,0.572,0.606,0.629,0.533
NCI-H1650,0.561,0.751,0.821,0.736,0.656,0.538,0.666,0.586,0.438,0.353,0.701,0.632,0.63,0.408,0.452,0.393,0.384,0.453
NCI-H1651,0.673,0.863,0.724,0.949,0.562,0.579,0.581,0.6,0.583,0.637,0.711,0.601,0.664,0.615,0.66,0.474,0.591,0.537
NCI-H1666,0.522,0.739,0.845,0.625,0.494,0.588,0.414,0.546,0.439,0.463,0.335,0.641,0.463,0.766,0.714,0.658,0.704,0.679
NCI-H1734,0.856,1.07,1.15,1.07,0.534,0.405,0.45,0.454,0.382,0.427,0.451,0.469,0.452,0.492,0.492,0.399,0.52,0.441
NCI-H1755,1.03,0.973,1.07,1,0.47,0.456,0.433,0.429,0.331,0.423,0.412,0.419,0.372,0.737,0.701,0.705,0.754,0.726
NCI-H1792,0.893,0.851,0.913,0.788,0.307,0.261,0.29,0.231,0.243,0.223,0.246,0.345,0.304,0.668,0.539,0.487,0.569,0.566
NCI-H1793,0.581,0.725,0.644,0.666,0.378,0.234,0.377,0.251,0.317,0.294,0.357,0.422,0.358,0.533,0.48,0.509,0.51,0.453
